What all share (type): biochemical
One test concerns the target T1, human Itk kinase (Homo sapiens, UniProt Q08881).
T1 sequence (Q08881 1-620): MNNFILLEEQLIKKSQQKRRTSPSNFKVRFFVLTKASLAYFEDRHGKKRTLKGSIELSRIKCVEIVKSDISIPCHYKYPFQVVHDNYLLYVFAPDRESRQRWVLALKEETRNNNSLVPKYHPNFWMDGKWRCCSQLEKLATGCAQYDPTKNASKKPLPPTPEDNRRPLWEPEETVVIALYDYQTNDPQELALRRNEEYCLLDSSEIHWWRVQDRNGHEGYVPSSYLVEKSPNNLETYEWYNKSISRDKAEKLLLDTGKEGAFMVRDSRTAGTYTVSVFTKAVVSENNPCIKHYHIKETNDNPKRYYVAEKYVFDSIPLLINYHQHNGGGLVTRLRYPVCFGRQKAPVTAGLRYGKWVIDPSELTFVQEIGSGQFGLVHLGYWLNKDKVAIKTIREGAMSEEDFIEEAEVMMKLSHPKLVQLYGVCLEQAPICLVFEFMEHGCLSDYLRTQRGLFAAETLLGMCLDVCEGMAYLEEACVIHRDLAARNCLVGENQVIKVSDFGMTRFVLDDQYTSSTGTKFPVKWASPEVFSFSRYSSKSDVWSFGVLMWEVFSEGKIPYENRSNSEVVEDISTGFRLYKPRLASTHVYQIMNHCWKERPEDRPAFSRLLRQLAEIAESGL
Briefly: Itk Inhibition Assay (radioactivity-based or spectrophotometric). Particulars: inhibition of human Itk kinase. As for the experimental part: The compounds of the present invention can be evaluated as inhibitors of human Itk kinase using either a radioactivity-based or a spectrophotometric assay. In general, compounds of the invention, including compounds in Table 1, are effective for the inhibition of Itk. Specifically, compounds I.1 to I.5 and compound I.7 have a Ki value of <1 μM and compounds I.6 and I.8 have a Ki value of >1 μM.
Assays were carried out in a mixture of 100 mM HEPES (pH 7.5), 10 mM MgCl2, 25 mM NaCl, 0.01% BSA and 1 mM DTT. Final substrate concentrations were 15 μM [γ-^33P]ATP (400 μCi ^33P ATP/μmol ATP, Amersham Pharmacia Biotech/Sigma Chemicals) and 2 μM peptide (SAM68 protein Δ332-443). Assays were carried out at 25° C. in the presence of 30 nM Itk. An assay stock buffer solution was prepared containing all of the reagents listed above, with the exception of ATP and the test compound of interest. 50 μL of the stock solution was placed in a 96 well plate followed by addition of 1.5 μL of DMSO stock containing serial dilutions of the test compound (typically starting from a final concentration of 15 μM with 2-fold serial dilutions) in duplicate (final DMSO concentration 1.5%). The plate was pre-incubated for 10 minutes at 25° C. and the reaction initiated by addition of 50 μL [γ-^33P]ATP (final concentration 15 μM).
The reaction was stopped after 10 minutes by the addition of 50 μL of a TCA/ATP mixture (20% TCA, 0.4 mM ATP). A Unifilter GF/C 96 well plate (Perkin Elmer Life Sciences, Cat no. 6005174) was pretreated with 5 μL Milli Q water prior to the addition of the entire reaction mixture (150 μL). […]
IC50 data were calculated from non-linear regression analysis of the initial rate data using the Prism software package (GraphPad Prism version 3.0cx for Macintosh, GraphPad Software, San Diego, Calif., USA). […]
Ki(app) data were calculated from non-linear regression analysis of the initial rate data using the Prism software package (GraphPad Prism version 3.0cx for Macintosh, GraphPad Software, San Diego, Calif., USA). […]

For another test, the target named is T2, FLT-3 (Homo sapiens, UniProt P36888).
T2 sequence (P36888 27-993): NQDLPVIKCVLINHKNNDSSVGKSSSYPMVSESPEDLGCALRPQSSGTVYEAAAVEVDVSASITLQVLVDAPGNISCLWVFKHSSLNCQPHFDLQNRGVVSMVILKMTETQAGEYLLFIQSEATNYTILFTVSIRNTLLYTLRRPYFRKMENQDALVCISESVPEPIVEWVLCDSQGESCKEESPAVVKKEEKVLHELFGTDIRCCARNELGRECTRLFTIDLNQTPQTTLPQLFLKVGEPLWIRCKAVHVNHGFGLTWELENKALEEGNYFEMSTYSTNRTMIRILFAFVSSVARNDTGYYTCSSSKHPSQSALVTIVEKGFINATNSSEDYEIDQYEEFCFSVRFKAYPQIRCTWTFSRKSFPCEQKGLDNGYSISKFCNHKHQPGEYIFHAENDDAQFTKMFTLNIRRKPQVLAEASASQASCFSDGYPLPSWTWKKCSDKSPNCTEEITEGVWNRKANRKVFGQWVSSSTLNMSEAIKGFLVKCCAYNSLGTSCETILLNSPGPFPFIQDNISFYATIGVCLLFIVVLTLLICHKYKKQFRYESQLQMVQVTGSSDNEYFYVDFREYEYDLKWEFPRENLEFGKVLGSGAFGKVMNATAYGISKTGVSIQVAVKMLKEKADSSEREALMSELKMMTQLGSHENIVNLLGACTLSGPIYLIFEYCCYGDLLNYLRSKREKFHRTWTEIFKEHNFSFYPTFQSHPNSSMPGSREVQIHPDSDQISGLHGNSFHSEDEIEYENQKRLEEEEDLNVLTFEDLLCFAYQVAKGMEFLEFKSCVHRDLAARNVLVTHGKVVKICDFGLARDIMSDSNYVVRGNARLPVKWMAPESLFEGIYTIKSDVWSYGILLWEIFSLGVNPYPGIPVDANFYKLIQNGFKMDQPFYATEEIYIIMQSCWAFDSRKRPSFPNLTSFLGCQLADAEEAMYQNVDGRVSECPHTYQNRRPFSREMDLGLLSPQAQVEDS
Briefly: FLT-3 kinase inhibition (assays similar to the ones described). As for the experimental part:
(§1) Compound I.9 was tested in assays similar to the ones described herein and found to inhibit FLT-3, JAK2, and JAK3 kinases.

The next test has as its target T3, JAK3 (Homo sapiens, UniProt P52333).
T3 sequence (P52333 1-1124): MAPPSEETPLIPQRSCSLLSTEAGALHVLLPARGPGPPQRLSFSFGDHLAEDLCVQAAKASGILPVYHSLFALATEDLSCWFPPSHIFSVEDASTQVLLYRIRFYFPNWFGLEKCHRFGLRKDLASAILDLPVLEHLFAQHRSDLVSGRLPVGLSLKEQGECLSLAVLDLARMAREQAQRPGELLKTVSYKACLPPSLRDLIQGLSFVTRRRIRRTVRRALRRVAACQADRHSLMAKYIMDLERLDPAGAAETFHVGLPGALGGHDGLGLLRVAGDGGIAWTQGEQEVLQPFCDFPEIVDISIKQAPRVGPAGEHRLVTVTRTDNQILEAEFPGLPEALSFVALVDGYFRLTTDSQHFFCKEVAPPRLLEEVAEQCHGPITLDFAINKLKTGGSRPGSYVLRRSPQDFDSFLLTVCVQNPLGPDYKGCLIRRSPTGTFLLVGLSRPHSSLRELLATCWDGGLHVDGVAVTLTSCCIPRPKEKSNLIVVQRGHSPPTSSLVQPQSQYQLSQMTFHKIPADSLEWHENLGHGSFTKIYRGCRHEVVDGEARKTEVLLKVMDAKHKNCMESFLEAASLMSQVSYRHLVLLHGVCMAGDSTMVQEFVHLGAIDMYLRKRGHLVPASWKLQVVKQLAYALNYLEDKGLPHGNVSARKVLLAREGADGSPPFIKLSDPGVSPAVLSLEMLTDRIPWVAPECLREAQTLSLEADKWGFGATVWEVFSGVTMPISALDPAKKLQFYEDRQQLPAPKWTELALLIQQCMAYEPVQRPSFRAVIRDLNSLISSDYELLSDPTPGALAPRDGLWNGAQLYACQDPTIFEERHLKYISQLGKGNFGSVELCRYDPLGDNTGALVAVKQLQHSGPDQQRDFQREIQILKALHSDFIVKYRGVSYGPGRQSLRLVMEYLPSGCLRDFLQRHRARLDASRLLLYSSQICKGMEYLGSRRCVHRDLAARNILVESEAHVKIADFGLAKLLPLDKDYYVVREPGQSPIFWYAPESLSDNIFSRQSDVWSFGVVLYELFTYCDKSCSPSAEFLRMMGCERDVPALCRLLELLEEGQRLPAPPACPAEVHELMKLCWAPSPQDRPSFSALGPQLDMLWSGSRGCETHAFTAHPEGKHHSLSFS
Description: JAK3 kinase inhibition (assays similar to the ones described). As for the experimental part: as §1

The target in a further test is JAK2 (Homo sapiens, UniProt O60674). Description: JAK2 kinase inhibition (assays similar to the ones described). As for the experimental part:
as §1

pKi: −log10 of the molar value. Bounds are passed on as bounds.

Chain of JAK2 (O60674 whole entry, species assumed): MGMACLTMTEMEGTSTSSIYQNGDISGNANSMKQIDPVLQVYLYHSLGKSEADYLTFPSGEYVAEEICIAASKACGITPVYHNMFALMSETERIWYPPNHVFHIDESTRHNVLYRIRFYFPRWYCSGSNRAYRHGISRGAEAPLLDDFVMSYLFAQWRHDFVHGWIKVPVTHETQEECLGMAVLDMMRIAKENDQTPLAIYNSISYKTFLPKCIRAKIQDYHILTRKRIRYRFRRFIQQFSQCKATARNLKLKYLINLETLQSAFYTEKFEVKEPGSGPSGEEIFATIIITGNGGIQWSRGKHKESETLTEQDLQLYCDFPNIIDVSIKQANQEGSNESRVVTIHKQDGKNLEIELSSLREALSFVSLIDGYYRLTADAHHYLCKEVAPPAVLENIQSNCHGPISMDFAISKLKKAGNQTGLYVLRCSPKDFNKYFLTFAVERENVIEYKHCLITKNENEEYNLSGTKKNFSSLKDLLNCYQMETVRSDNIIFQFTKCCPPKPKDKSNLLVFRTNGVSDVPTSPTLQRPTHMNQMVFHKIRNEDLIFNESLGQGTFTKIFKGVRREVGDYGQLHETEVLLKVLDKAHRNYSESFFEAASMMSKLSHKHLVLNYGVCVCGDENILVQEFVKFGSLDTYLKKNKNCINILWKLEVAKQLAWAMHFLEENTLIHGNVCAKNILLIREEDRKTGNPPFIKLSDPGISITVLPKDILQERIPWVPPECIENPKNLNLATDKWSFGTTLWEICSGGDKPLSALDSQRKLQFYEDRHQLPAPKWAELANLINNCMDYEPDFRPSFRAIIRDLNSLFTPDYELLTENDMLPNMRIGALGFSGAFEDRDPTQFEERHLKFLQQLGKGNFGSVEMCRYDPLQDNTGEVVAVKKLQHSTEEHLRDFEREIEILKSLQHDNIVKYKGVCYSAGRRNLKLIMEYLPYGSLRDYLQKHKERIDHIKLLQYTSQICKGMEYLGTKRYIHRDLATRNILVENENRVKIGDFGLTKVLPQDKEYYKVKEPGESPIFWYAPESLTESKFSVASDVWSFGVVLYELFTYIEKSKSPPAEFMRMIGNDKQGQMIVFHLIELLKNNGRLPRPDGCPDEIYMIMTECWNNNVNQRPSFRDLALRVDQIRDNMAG

As for `CNc1cncc(-c2c[nH]c(=O)c(/C=C3\C(=O)Nc4ccccc43)c2)n1` [I.6, 3-((1,2-dihydro-5-(6-(methylamino)pyrazin-2-yl)-2-oxopyridin-3-yl)methylene)indolin-2-one], at human Itk kinase, the pKi (commonly the negative decadic logarithm of the Ki, by convention in mol/L) is under 6.00.
With `CNc1cncc(-c2c[nH]c(=O)c(/C=C/c3cc(CN4CCN(S(C)(=O)=O)CC4)ccc3[N+](=O)[O-])c2)n1` [I.7], at human Itk kinase, the negative logarithm of the Ki (pKi) is over 6.00.
On the same count and under the same terms, under `CNc1cncc(-c2c[nH]c(=O)c(/C=C/c3cc(OC)ccc3[N+](=O)[O-])c2)n1` [I.8] stands under 6.00.
In the case of `O=c1[nH]cc(-c2ccccc2Cl)cc1/C=C/c1cnc2ccccn12` [I.9], the “inhibition of FLT-3 kinase (in words)” value on FLT-3 was “inhibit”. In addition, on JAK3, the “inhibition of JAK3 kinase (in words)” value is “inhibit”. For the same molecule, the “inhibition of JAK2 kinase (in words)” value at JAK2 was “inhibit”.

Source of the values: patent publication US7786120B2, “Pyridones useful as inhibitors of kinases” (Vertex Pharmaceuticals Incorporated, priority 2005, dated 2010).
